Tests used:
Type in all cases: in vivo
Malachium aquaticum = assay: Comparison experiment (post-emergence, Table 7); conditions: Malachium aquaticum (2 branches)
From the text: (§1) If there is no clear marker, the post-seedling test conditions are the same as above, and the experimental results are shown in Tables 4-7.

Descurainia sophia = assay: Comparison experiment (post-emergence, Table 7); conditions: Descurainia sophia (12 leaf)
From the text: as §1

Sinapis arvensis = assay: Comparison experiment (post-emergence, Table 7); conditions: Sinapis arvensis (3.5 leaf)
From the text: as §1

Capsella bursa-pastoris = assay: Comparison experiment (post-emergence, Table 7); conditions: Capsella bursa-pastoris (10-11 leaf)
From the text: as §1

Veronica didyma = assay: Comparison experiment (post-emergence, Table 7); conditions: Veronica didyma (2 branches)
From the text: as §1

Echinochloa crusgali = assay: Comparison experiment (post-emergence, Table 7); conditions: Echinochloa crusgali (3 leaf)
From the text: as §1

Galium aparine = assay: Comparison experiment (post-emergence, Table 7); conditions: Galium aparine (5 branches)
From the text: as §1

Amaranthus retroflexus = assay: Comparison experiment (post-emergence, Table 7); conditions: Amaranthus retroflexus (6 leaf)
From the text: as §1

Corn-Zhengdan 958 = assay: Comparison experiment (post-emergence, Table 7), crop safety on corn; conditions: Corn-Zhengdan 958 (3.5 leaf)
From the text: as §1

Green Setaria viridis = assay: Comparison experiment (post-emergence) against racemate / S configuration; conditions: for Results of comparison experiment (16DAA), weed control: Setaria viridis (4 leaf)
Leptochloa chinensis = assay: as above; conditions: Leptochloa chinensis (4.5 leaf), 16DAA
Abutilon theophrasti = assay: as above; conditions: Abutilon theophrasti (3.5 leaf), 16DAA
Digitaria sanguinalis [1] = assay: as above; conditions: Table 6, post-seedling test conditions
From the text: (§2) The above growth control rates are fresh weight control rates.
(§3) Experiment on weeding effect in post-emergence stage: monocotyledonous and dicotyledonous weed seeds (Descurainia sophia, Capsella bursa-pastoris, Galium aparine, Stellaria media, Lithospermum arvense, Rorippa indica, Alopecurus aequalis, Beckmannia syzigachne, Sclerochloa dura, Phleum paniculatum, Bromus japonicus, Aegilops tauschii, Phalaris arundinacea, Amaranthus retroflexus, Chenopodiaceae, Commelina communis, Sonchus arvensis, convolvulus arvensis, Cirsium setosum, Solanum nigrum, Acalypha australis, Digitaria sanguinalis, Echinochloa crusgalli, Setaria viridis, Setaria glauca, Leptochloa chinensis, Monochoria vaginalis, Sagittaria trifolia, Scirpus juncoides, Cyperus rotundus, Cyperus iria, Cyperus difformis, Fimbristylis, Portulaca oleracea, Xanthium sibiricum, Pharbitis nil) and major crop seeds (wheat, corn, rice, soybean, cotton, oilseed rape, millet, sorghum, potato, sesame, ricinus) were placed in plastic pots filled with soil, then covered with 0.5-2 cm of soil, allowed to grow in a good greenhouse environment. After 2 weeks of sowing, the test plants were treated in the 2 leaf stage. The tested compounds of the present invention were respectively dissolved in acetone, then added with Tween 80 and 1.5 liter/ha of emulsifiable concentrate of methyl oleate as synergist, diluted with a certain amount of water to obtain a solution with a certain concentration, and sprayed with a spray tower onto the plants. After the application, the plants were cultured for 15 days in the greenhouse, and then the experimental results of the weeding were counted. The doses of the used compounds were 500, 250, 125, 60, 30, 15 g/ha, and the averages were obtained by repeating for three times.
as §1

Alopecurus japonicas = assay: as above; conditions: Table 6, post-seedling test conditions
From the text: as §2, §3, §1

Digitaria sanguinalis [2] = assay: as above; conditions: Digitaria sanguinalis (3.5 leaf), 16DAA

CC[S+]([O-])c1c(C(F)(F)F)ccc(C(=O)Nc2nnc(C)o2)c1SC (centres unmarked) [Control Compound A′, reference compound]
0%: Results of comparison experiment (16DAA), weed control (Descurainia sophia; 3 g/ha) | Results of comparison experiment (16DAA), weed control (Sinapis arvensis; 3 g/ha) | Results of comparison experiment (16DAA), weed control (Sinapis arvensis; 6 g/ha) | Results of comparison experiment (16DAA), weed control (Capsella bursa-pastoris; 3 g/ha) | Results of comparison experiment (16DAA), weed control (Galium aparine; 3 g/ha) | Results of comparison experiment (16DAA), weed control (Galium aparine; 6 g/ha) | Results of comparison experiment (16DAA), weed control (Galium aparine; 12 g/ha) | Results of comparison experiment (16DAA), weed control (Galium aparine; 24 g/ha) | Results of comparison experiment (16DAA), crop damage (Corn-Zhengdan 958; 3 g/ha) | Results of comparison experiment (16DAA), crop damage (Corn-Zhengdan 958; 6 g/ha) | Results of comparison experiment (16DAA), crop damage (Corn-Zhengdan 958; 12 g/ha) | Results of comparison experiment (16DAA), crop damage (Corn-Zhengdan 958; 24 g/ha) | Results of comparison experiment (16DAA), crop damage (Corn-Zhengdan 958; 48 g/ha) | Results of comparison experiment (16DAA), weed control (Green Setaria viridis; 3 g/ha) | Results of comparison experiment (16DAA), weed control (Green Setaria viridis; 6 g/ha) | Results of comparison experiment (16DAA), weed control (Leptochloa chinensis; 3 g/ha) | Results of comparison experiment (16DAA), weed control (Leptochloa chinensis; 6 g/ha) | Results of comparison experiment (16DAA), weed control (Leptochloa chinensis; 12 g/ha)
10%: Results of comparison experiment (16DAA), weed control (Malachium aquaticum; 3 g/ha) | Results of comparison experiment (16DAA), weed control (Malachium aquaticum; 6 g/ha) | Results of comparison experiment (16DAA), weed control (Descurainia sophia; 6 g/ha) | Results of comparison experiment (16DAA), weed control (Capsella bursa-pastoris; 6 g/ha) | Results of comparison experiment (16DAA), weed control (Capsella bursa-pastoris; 12 g/ha) | Results of comparison experiment (16DAA), weed control (Veronica didyma; 3 g/ha) | Results of comparison experiment (16DAA), weed control (Veronica didyma; 6 g/ha) | Results of comparison experiment (16DAA), weed control (Echinochloa crusgali; 3 g/ha) | Results of comparison experiment (16DAA), weed control (Galium aparine; 48 g/ha) | Results of comparison experiment (16DAA), weed control (Amaranthus retroflexus; 3 g/ha) | Results of comparison experiment (16DAA), weed control (Amaranthus retroflexus; 6 g/ha) | Results of comparison experiment (16DAA), weed control (Green Setaria viridis; 12 g/ha) | Results of comparison experiment (16DAA), weed control (Leptochloa chinensis; 24 g/ha) | Results of comparison experiment (16DAA), weed control (Abutilon theophrasti; 3 g/ha) | Results of comparison experiment (16DAA), weed control (Digitaria sanguinalis [2]; 3 g/ha) | Results of comparison experiment (16DAA), weed control (Digitaria sanguinalis [2]; 6 g/ha)
40%: Results of comparison experiment (16DAA), weed control (Descurainia sophia; 48 g/ha) | Results of comparison experiment (16DAA), weed control (Sinapis arvensis; 24 g/ha) | Results of comparison experiment (16DAA), weed control (Echinochloa crusgali; 24 g/ha) | Results of comparison experiment (16DAA), weed control (Amaranthus retroflexus; 12 g/ha) | Results of comparison experiment (16DAA), weed control (Green Setaria viridis; 24 g/ha) | Results of comparison experiment (16DAA), weed control (Abutilon theophrasti; 24 g/ha)
50%: Results of comparison experiment (16DAA), weed control (Malachium aquaticum; 48 g/ha) | Results of comparison experiment (16DAA), weed control (Sinapis arvensis; 48 g/ha) | Results of comparison experiment (16DAA), weed control (Echinochloa crusgali; 48 g/ha) | Results of comparison experiment (16DAA), weed control (Amaranthus retroflexus; 24 g/ha) | Results of comparison experiment (16DAA), weed control (Amaranthus retroflexus; 48 g/ha) | Results of comparison experiment (16DAA), weed control (Green Setaria viridis; 48 g/ha) | Results of comparison experiment (16DAA), weed control (Abutilon theophrasti; 48 g/ha) | Results of comparison experiment, Digitaria sanguinalis (30 g/ha) (Digitaria sanguinalis [1])
90%: Results of comparison experiment, Green Setaria viridis (30 g/ha) (Green Setaria viridis; 30 g/ha, Table 6, post-seedling test conditions)
30%: Results of comparison experiment (16DAA), weed control (Malachium aquaticum; 24 g/ha) | Results of comparison experiment (16DAA), weed control (Descurainia sophia; 24 g/ha) | Results of comparison experiment (16DAA), weed control (Capsella bursa-pastoris; 48 g/ha) | Results of comparison experiment (16DAA), weed control (Echinochloa crusgali; 12 g/ha) | Results of comparison experiment (16DAA), weed control (Abutilon theophrasti; 12 g/ha) | Results of comparison experiment (16DAA), weed control (Digitaria sanguinalis [2]; 24 g/ha) | Results of comparison experiment (16DAA), weed control (Digitaria sanguinalis [2]; 48 g/ha)
20%: Results of comparison experiment (16DAA), weed control (Malachium aquaticum; 12 g/ha) | Results of comparison experiment (16DAA), weed control (Descurainia sophia; 12 g/ha) | Results of comparison experiment (16DAA), weed control (Sinapis arvensis; 12 g/ha) | Results of comparison experiment (16DAA), weed control (Capsella bursa-pastoris; 24 g/ha) | Results of comparison experiment (16DAA), weed control (Veronica didyma; 12 g/ha) | Results of comparison experiment (16DAA), weed control (Veronica didyma; 24 g/ha) | Results of comparison experiment (16DAA), weed control (Veronica didyma; 48 g/ha) | Results of comparison experiment (16DAA), weed control (Echinochloa crusgali; 6 g/ha) | Results of comparison experiment (16DAA), weed control (Leptochloa chinensis; 48 g/ha) | Results of comparison experiment (16DAA), weed control (Abutilon theophrasti; 6 g/ha) | Results of comparison experiment, Alopecurus japonicas (120 g/ha) (Alopecurus japonicas) | Results of comparison experiment (16DAA), weed control (Digitaria sanguinalis [2]; 12 g/ha)
